This assay has as its target human IK (Homo sapiens (Human), UniProt O15554). The assay is described as follows: Inhibition of IK channels expressed in HEK293 cells, thallium (I) sensitive FLIPR assay. Type of assay: cell-based. Conditions: HEK293 cells over-expressing human IK; Tl+-sensitive BTC fluorescence (FLIPR); inhibition of activity induced by Ca2+-ionophore A23187. The procedure: Following experiment determines the ability of a test compound to inhibit the activity of IK channels heterologously expressed in human HEK293 cells, and was used as the primary screen. The ability is determined as per cent inhibition of the activity induced by addition of the Ca^2+-ionophore A23187 (considered a maximum response). The activity is determined using a standard thallium (I) sensitive assay, e.g. using a fluorometric method in a Fluorescent Image Plate Reader (FLIPR) as described below in more detail.
Full concentration/response curves are generated and IC50 values are calculated based on the degree of inhibition of the maximum response. IC50 values (Inhibitory Concentration) represent the concentration of the test substance at which 50% of the maximum channel activity is inhibited.
Human HEK293 cells over-expressing human IK are grown in culture medium (DMEM supplemented with 10% foetal bovine serum), in polystyrene culture flasks ([…]) in a humidified atmosphere of 5% CO2 in air, at 37° C. Cell confluence should be 80-90% on day of plating. Cells are rinsed with 4 mL of PBS (phosphate buffered saline) and incubated 2 min with 1 mL of Trypsin-EDTA. After addition of 25 mL of culture medium cells are re-suspended by trituration with a 25 mL pipette.
The cells are seeded at a density of ˜3×10^6 cells/mL (25 μL/well) in black-walled, clear bottom, 384-well plates pre-treated with 0.01 g/L poly-D-lysin (20 μL/well for ≧30 min). Plated cells were allowed to proliferate for 24 h before loading with dye.
BTC-AM ([…], Invitrogen) is added 25.5 μl DMSO. The BTC-AM stock solution (2 mM) is diluted to a final concentration of 2 μM in […] assay buffer (in mM: 140 Na^+-gluconate, 2.5 K^+-gluconate, 6 Ca2^+-gluconate, 1 Mg^2+ gluconate, 5 glucose, 10 HEPES, pH 7.3) containing 2 μM ouabain, 2 mM amaranth and 1 mM tartrazine.
The culture medium is aspirated from the wells, and 25 μl of the BTC-AM loading solution are added to each well. The cells are incubated at 37° C. for 60 min.
After the loading period, the Tl^+-sensitive BTC fluorescence signal is measured over time using a FLIPR.
• Temperature: Room temp. • First addition: 12 μl test or control compound after 15 sec at a rate of 30 μL/sec and starting height of 20 μL • Second addition: 12 μL stimulus buffer (Cl^− free assay buffer supplemented with 1 mM Tl2SO4, 5 μM A23187 as well as the quenchers amaranth (2 mM) and tartrazine (1 mM)) is added after an additional 3 minutes at a rate of 30 μL/sec and starting height of 30 μL • Reading intervals: First sequence—3 sec×5, 2 sec×24 and 5 sec×25 • Second sequence—1 sec×5, 2 sec×24 and 5 sec×36
Addition plates (compound plate and stimulus plate) are placed in positions 2 and 3, respectively. Cell plates are placed in position 1 and run using the “IK blocker (EtOH wash, two additions)” program. FLIPR will then take the appropriate measurements in accordance with the interval settings above. Fluorescence obtained after stimulation is corrected for the mean basal fluorescence (in Cl^− free assay buffer).
Full concentration/response curves are generated and IC50 values (“Inhibitory Concentration”, i.e. the concentration of the test substance at which 50% of the maximum channel activity is inhibited) are calculated. The responses are calculated based on peak values.
Consider `COCCOc1ccccc1-c1ccccc1-c1nnnn1-c1ccccc1F` [Compound 4, 1-(2-Fluorophenyl)-5-{2-[2-(2-methoxyethoxyl)phenyl]phenyl}-1H-1,2,3,4-tetrazole], for which the half-inhibitory concentration (IC50) worked out at 30 nM.

In the case of `COc1ccccc1-c1ccccc1-c1nnnn1-c1ccccc1F` [Compound 13, 1-(2-Fluorophenyl)-5-[2-(2-methoxyphenyl)phenyl]-1H-1,2,3,4-tetrazole], the half-inhibitory concentration (IC50) is 110 nM.

The molecule `O=Cc1ccccc1-c1ccccc1-c1nnnn1-c1ccccc1F` [Compound 21, 2-{2-[1-(2-Fluorophenyl)-1H-1,2,3,4-tetrazol-5-yl]phenyl}benzaldehyde] yielded a half-maximal inhibitory concentration (IC50) of 550 nM. Compared with the last molecule, the IC50 is about 5-fold higher.

Molecule `c1ccc(-c2ccccc2-c2nnnn2-c2ccccc2)cc1` [Compound 65, 1-Phenyl-5-(2-phenylphenyl)-1H-1,2,3,4-tetrazole] displayed an IC50 of 890 nM.

`N#Cc1ccccc1-n1nnnc1-c1ccccc1-c1ccccc1OC(F)F` [Compound 62, 2-(5-{2-[2-(Difluoromethoxy)phenyl]phenyl}-1H-1,2,3,4-tetrazol-1-yl)benzonitrile] displayed a half-maximal inhibitory concentration (IC50) of 210 nM.

With `Nc1ccccc1-c1ccccc1-c1nnnn1-c1ccccc1F` [Compound 27, 2-{2-[1-(2-Fluorophenyl)-1H-1,2,3,4-tetrazol-5-yl]phenyl}aniline], 900 nM corresponded to half-maximal inhibition (IC50).

(Values after patent publication US9556132B2, “Tetrazole derivatives and their use as potassium channel modulators” (SANIONA A/S, priority 2012, dated 2017).)
